Converted amounts (≈) assume the structure as drawn. Numbered stars: 1 amine (or outer) side, 2 acyl side, 3 side chain; on linkers, the order of the positions; unused ones are H or OH. Bridge positions count the residues as written; N and C are the ends. Peptide text beside a SMILES is read from it. X1 = O=C(CCC[*:2])[*:1]
How the values were obtained:
[1] = molecular target: T1, Vasopressin V1b receptor (Homo sapiens, UniProt P47901); assay: Binding affinity to V1B receptor (unknown origin)
T1 sequence (P47901 whole entry): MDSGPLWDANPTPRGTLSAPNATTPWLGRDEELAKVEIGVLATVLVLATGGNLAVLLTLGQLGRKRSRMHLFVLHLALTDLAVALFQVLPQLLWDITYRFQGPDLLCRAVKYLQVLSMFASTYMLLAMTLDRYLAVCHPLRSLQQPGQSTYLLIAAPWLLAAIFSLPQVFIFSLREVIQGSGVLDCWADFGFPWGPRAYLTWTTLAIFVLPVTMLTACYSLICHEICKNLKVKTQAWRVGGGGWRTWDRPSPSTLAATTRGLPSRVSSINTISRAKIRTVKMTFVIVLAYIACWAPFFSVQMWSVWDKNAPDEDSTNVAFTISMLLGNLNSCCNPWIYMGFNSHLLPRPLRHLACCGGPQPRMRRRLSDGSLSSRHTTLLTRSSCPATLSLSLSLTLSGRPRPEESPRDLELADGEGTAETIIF

[2] = molecular target: T2, Vasopressin V2 receptor (Homo sapiens, UniProt P30518); assay: Binding affinity to V2 receptor (unknown origin)
[3] = molecular target: T2, Vasopressin V2 receptor; assay: Displacement of DY647 from SNAP-tagged V2 receptor (unknown origin) expressed in HEK293 cells by TR-FRET assay; assay type: cell-based
[4] = molecular target: T3, Oxytocin receptor (Homo sapiens) (UniProt P30559); assay: Agonist activity at human OTR expressed in HEK cells assessed as increase in intracellular calcium flux incubated for 45 mins by Indo1-AM dye based fluorescence assay relative to OT; assay type: functional, cell-based
T3 sequence (whole entry): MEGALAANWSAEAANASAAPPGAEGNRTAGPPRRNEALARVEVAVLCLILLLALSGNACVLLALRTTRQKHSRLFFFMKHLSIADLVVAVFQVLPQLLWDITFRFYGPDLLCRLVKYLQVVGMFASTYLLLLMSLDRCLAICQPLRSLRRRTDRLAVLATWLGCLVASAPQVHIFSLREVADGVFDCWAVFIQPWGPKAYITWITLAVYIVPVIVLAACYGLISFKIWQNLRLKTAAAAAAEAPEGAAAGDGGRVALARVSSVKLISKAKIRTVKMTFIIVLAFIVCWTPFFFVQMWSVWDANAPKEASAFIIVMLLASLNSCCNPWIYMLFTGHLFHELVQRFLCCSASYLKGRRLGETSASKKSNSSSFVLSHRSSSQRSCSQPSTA

[5] = molecular target: T3, Oxytocin receptor (Homo sapiens); assay: Antagonist activity at human OTR expressed in HEK cells assessed as inhibition of OT-induced intracellular calcium flux at 1 uM incubated for 45 mins by Indo1-AM dye based fluorescence assay relative to OT; assay type: functional, cell-based
[6] = Thermodynamic solubility in pH 7.4 buffer; assay type: physicochemical; details: read-out: Therm_solubility
[7] = molecular target: T3, Oxytocin receptor (Homo sapiens); assay: Agonist activity at human OTR receptor expressed in HEK293FT cells assessed as stimulation of calcium release by Aequorin based assay relative to OT; assay type: functional, cell-based
[8] = molecular target: T4, Oxytocin receptor (Mus musculus, UniProt P97926); assay: Agonist activity at mouse OTR receptor expressed in HEK293FT cells assessed as stimulation of calcium release by Aequorin based assay; assay type: functional, cell-based
T4 sequence (P97926 whole entry): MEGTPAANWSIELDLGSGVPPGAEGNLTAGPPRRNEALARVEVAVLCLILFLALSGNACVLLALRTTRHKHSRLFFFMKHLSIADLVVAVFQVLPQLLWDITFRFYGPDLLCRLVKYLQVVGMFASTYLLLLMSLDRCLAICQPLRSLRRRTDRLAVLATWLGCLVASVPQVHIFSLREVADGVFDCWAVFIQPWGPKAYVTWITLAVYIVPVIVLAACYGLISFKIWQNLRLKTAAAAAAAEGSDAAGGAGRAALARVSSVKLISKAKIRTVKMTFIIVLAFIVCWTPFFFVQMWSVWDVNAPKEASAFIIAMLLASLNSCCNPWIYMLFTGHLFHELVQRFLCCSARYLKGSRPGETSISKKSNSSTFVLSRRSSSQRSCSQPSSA

[9] = molecular target: T5, Oxytocin receptor (Mus musculus) (UniProt P97926); assay: Agonist activity at mouse OTR receptor expressed in HEK293FT cells assessed as stimulation of calcium release by Aequorin based assay relative to OT; assay type: functional, cell-based
T5 sequence (whole entry): T4 sequence (P97926 whole entry)

[10] = molecular target: T2, Vasopressin V2 receptor; assay: Agonist activity at human V2 receptor expressed in HEK293FT cells assessed as stimulation of calcium release by Aequorin based assay; assay type: functional, cell-based
[11] = molecular target: T3, Oxytocin receptor (Homo sapiens); assay: Agonist activity at human OTR receptor expressed in HEK293FT cells incubated for 30 mins by beta-arrestin recruitment assay relative to OT; assay type: functional, cell-based
[12] = molecular target: T3, Oxytocin receptor (Homo sapiens); assay: Agonist activity at recombinant human OTR expressed in CHO-DUKX-A2 cells assessed as stimulation of intracellular calcium concentration by calcium 3 dye based FLIPR assay relative to OT; assay type: functional, cell-based
[13] = molecular target: T6, Vasopressin V1a receptor (Homo sapiens, UniProt P37288); assay: Displacement of [3H]-AVP from human V1A receptor expressed in CHO cell membranes by radioligand binding assay
Target sequence in this assay (P37288 whole entry): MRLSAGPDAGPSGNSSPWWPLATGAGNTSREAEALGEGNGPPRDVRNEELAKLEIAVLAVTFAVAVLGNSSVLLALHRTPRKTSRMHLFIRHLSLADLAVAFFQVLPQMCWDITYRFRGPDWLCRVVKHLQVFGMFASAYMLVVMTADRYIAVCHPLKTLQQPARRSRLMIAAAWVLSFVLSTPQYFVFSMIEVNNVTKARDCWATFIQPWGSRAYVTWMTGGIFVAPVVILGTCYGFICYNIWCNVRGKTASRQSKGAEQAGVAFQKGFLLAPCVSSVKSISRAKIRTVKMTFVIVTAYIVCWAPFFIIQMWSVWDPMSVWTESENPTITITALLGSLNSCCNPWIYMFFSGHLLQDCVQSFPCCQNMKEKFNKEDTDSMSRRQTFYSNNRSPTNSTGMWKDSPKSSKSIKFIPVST

[14] = molecular target: T2, Vasopressin V2 receptor; assay: Displacement of [3H]-AVP from human V2 receptor expressed in CHO cell membranes by radioligand binding assay
[15] = molecular target: T7, Oxytocin receptor (Homo sapiens, UniProt P30559); assay: Displacement of [3H]-AVP from human OXR receptor expressed in CHO cell membranes by radioligand binding assay
T7 sequence (P30559 whole entry): T3 sequence (whole entry)

[16] = molecular target: T6, Vasopressin V1a receptor; assay: Antagonist activity at human V1A receptor expressed in CHO cells assessed as inhibition of AVP-induced myo-inositol 1-phosphate accumulation by IP-One assay; assay type: functional, cell-based
Target sequence in this assay (P37288 whole entry, looked up): as the sequence (P37288 whole entry) above

[17] = molecular target: T2, Vasopressin V2 receptor; assay: Antagonist activity at human V2 receptor expressed in CHO cells assessed as inhibition of AVP-induced cAMP accumulation by cAMP dynamic 2 assay; assay type: functional, cell-based
[18] = molecular target: T3, Oxytocin receptor (Homo sapiens); assay: Antagonist activity at human OTR receptor expressed in CHO cells assessed as inhibition of OT-induced myo-inositol 1-phosphate accumulation by IP-One assay; assay type: functional, cell-based
[19] = molecular target: T3, Oxytocin receptor (Homo sapiens); assay: Agonist activity at human OTR receptor expressed in CHO cells assessed as increase in myo-inositol 1-phosphate accumulation at 1 uM by IP-One assay relative to OT; assay type: functional, cell-based
[20] = molecular target: T6, Vasopressin V1a receptor; assay: Agonist activity at human V1A receptor expressed in CHO cells assessed as increase in myo-inositol 1-phosphate accumulation at 1 uM by IP-One assay relative to AVP; assay type: functional, cell-based
Target sequence in this assay (P37288 whole entry, looked up): as the sequence (P37288 whole entry) above

[21] = molecular target: T6, Vasopressin V1a receptor; assay: Antagonist activity at human V1A receptor expressed in CHO cells assessed as inhibition of AVP-induced myo-inositol 1-phosphate accumulation at 1 uM by IP-One assay relative to AVP; assay type: functional, cell-based
Target sequence in this assay (P37288 whole entry, looked up): as the sequence (P37288 whole entry) above

[22] = molecular target: T3, Oxytocin receptor (Homo sapiens); assay: Antagonist activity at human OTR receptor expressed in CHO cells assessed as inhibition of OT-induced myo-inositol 1-phosphate accumulation at 1 uM by IP-One assay relative to OT; assay type: functional, cell-based
[23] = species on record: Homo sapiens; assay: Selectivity for human V1a receptor over human V2 receptor
[24] = species on record: Homo sapiens; assay: Selectivity for human OTR receptor over human V2 receptor
[25] = molecular target: T6, Vasopressin V1a receptor
Target sequence in this assay (P37288 whole entry): as above
Description: Agonist activity at human V1a receptor expressed in HEK293FT cells assessed as stimulation of calcium release by Aequorin based assay

[26] = molecular target: T6, Vasopressin V1a receptor; remark: listed apart in the source
Target sequence in this assay (P37288 whole entry): as above
Description: Agonist activity at human V1a receptor expressed in HEK293FT cells incubated for 30 mins by beta-arrestin recruitment assay

[27] = molecular target: T1, Vasopressin V1b receptor
Description: Agonist activity at human V1b receptor expressed in HEK293FT cells incubated for 30 mins by beta-arrestin recruitment assay

[28] = molecular target: T6, Vasopressin V1a receptor; assay: Displacement of DY647 from SNAP-tagged V1A receptor (unknown origin) expressed in HEK293 cells by TR-FRET assay; assay type: cell-based
Target sequence in this assay (P37288 whole entry): as above

[29] = molecular target: T6, Vasopressin V1a receptor; assay: Agonist activity at human V1A receptor expressed in HEK cells assessed as increase in intracellular calcium flux at 1 uM incubated for 45 mins by Indo1-AM dye based fluorescence assay relative to AVP; assay type: functional, cell-based
Target sequence in this assay (P37288 whole entry, looked up): as the sequence (P37288 whole entry) above

[30] = molecular target: T6, Vasopressin V1a receptor; assay: Antagonist activity at human V1A receptor expressed in HEK cells assessed as inhibition of AVP-induced intracellular calcium flux incubated for 45 mins by Indo1-AM dye based fluorescence assay relative to AVP; assay type: functional, cell-based
Target sequence in this assay (P37288 whole entry): as above

[31] = molecular target: T7, Oxytocin receptor; assay: Displacement of DY647 from SNAP-tagged OTR receptor (unknown origin) expressed in HEK293 cells by TR-FRET assay; assay type: cell-based
[32] = molecular target: T3, Oxytocin receptor (Homo sapiens); assay: Agonist activity at human OTR expressed in HEK cells assessed as increase in intracellular calcium flux at 1 uM incubated for 45 mins by Indo1-AM dye based fluorescence assay relative to OT; assay type: functional, cell-based
[33] = molecular target: T7, Oxytocin receptor; assay: Antagonist activity at human OTR expressed in HEK cells assessed as inhibition of OT-induced intracellular calcium flux incubated for 45 mins by Indo1-AM dye based fluorescence assay; assay type: functional, cell-based
[34] = molecular target: T6, Vasopressin V1a receptor; assay: Displacement of [3H]-AVP from human V1A receptor expressed in human HeLa cell membranes incubated for 2 hrs by scintillation counting method
Target sequence in this assay (P37288 whole entry): as above

[35] = molecular target: T1, Vasopressin V1b receptor; assay: Displacement of [3H]-AVP from human V1B receptor expressed in human HeLa cell membranes incubated for 2 hrs by scintillation counting method
[36] = molecular target: T2, Vasopressin V2 receptor; assay: Displacement of [3H]-AVP from human V2 receptor expressed in human HeLa cell membranes incubated for 2 hrs by scintillation counting method
[37] = molecular target: T2, Vasopressin V2 receptor; assay: Agonist activity at human V2 receptor expressed in human HeLa cells assessed as stimulation of cAMP accumulation by radioimmunoassay; assay type: functional, cell-based

T2 sequence (P30518 whole entry): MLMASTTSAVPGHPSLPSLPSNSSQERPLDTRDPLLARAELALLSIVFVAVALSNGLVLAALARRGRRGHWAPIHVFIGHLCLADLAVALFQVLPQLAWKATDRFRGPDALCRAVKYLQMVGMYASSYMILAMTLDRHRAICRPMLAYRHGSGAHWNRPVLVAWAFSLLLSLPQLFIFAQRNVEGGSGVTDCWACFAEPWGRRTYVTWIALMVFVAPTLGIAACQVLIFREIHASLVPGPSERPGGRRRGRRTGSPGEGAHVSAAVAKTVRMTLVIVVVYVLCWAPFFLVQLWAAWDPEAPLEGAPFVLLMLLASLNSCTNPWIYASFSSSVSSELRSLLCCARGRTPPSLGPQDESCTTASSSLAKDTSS

SMILES: Cc1cc(C(=O)N2Cc3cnn(C)c3Nc3ccccc32)ccc1CNC(=O)N1CCN(Cc2cc(O)cc(O)c2)CC1
- Ki [1]: 1000 to 5800 nM
- Ki [2]: 58.4 to 1000 nM
- Ki [3]: > 1000 nM
- Emax [4]: 40%
- inhibition [5]: 5 to 10%
- solubility thermodynamic [6]: 5 mM (≈ 2910 µg/mL)
- Emax [7]: 70%
- EC50 [8]: 78 nM
- Emax [9]: 86%
- EC50 [10]: 2300 nM
- Emax [11]: 84%
- Emax [12]: 87.1%

SMILES: O=C(c1ccc(-c2cccnc2)cc1)N1CCCCc2ccccc21
- Ki [13]: 67 nM
- Ki [14]: 233 nM
- Ki [15]: 150 nM
- Kinact [16]: 51 nM
- Kinact [17]: 78 nM
- Kinact [18]: 227 nM
- Emax [19]: < 10%
- Emax [20]: < 10%

SMILES: Cc1ccn(-c2ccc(C(=O)N3CCCC(N(C)C)c4ccccc43)c(Cl)c2)n1 (centres undefined)
- Ki [13]: < 10 nM
- Ki [14]: 331 nM
- Ki [15]: > 1000 nM
- Kinact [17]: 126 nM
- inhibition [21]: < 10%
- inhibition [22]: < 10%
- Emax [20]: < 10%
- Selectivity ratio [23]: > 30
- Selectivity ratio [24]: > 3

SMILES: CC[C@H](C)[C@@H]1NC(=O)[C@H](Cc2ccc(OC)cc2)NC(=O)CCCSC[C@@H](C(=O)N2CCC[C@H]2C(=O)N[C@@H](CC(C)C)C(=O)NCC(N)=O)NC(=O)[C@H](CC(N)=O)NC(=O)[C@H](CCC(N)=O)NC1=O [CARBETOCIN] (Y(Me)IQNCPLG-NH2; linker N-5 via X1)
- EC50 [8]: 62 nM
- Emax [9]: 85%
- EC50 [25]: Not Active
- IC50 [26]: Not Active
- EC50 [27]: Not Active

SMILES: CC[C@H](C)[C@@H]1NC(=O)[C@H](Cc2ccc(O)cc2)NC(=O)[C@@H](N)CSSC[C@@H](C(=O)N2CCC[C@H]2C(=O)N[C@@H](CC(C)C)C(=O)NCC(N)=O)NC(=O)[C@H](CC(N)=O)NC(=O)[C@H](CCC(N)=O)NC1=O [OXYTOCIN]
- Emax [7]: 100%
- Emax [9]: 100%
- Emax [11]: 100%
- IC50 [26]: Not Active

SMILES: Cc1cc(C(=O)N2Cc3cnn(C)c3Nc3ccccc32)ccc1CNC(=O)NCC(=S)N(C)C
- Ki [28]: 82 nM
- Emax [29]: 5 to 10%
- IC50 [30]: 9 nM
- Ki [3]: > 1000 nM
- Ki [31]: 61 nM
- Emax [32]: 5 to 10%
- IC50 [33]: 600 nM

SMILES: CC(C)NC(=O)C[C@H]1CCCN(C(=O)c2ccc(N3CCCC3)cc2Cl)c2ccccc21
- Ki [34]: 819 nM
- IC50 [35]: > 100000 nM
- Ki [36]: 91.9 nM
- EC50 [37]: 189 nM
